PMC5655693, “Conformational stabilization as a strategy to prevent nucleophosmin mislocalization in leukemia” (Scientific Reports, 2017)

How the values were obtained:
Nucleophosmin (NPM) [1] = target: T1, Nucleophosmin (NPM) (Homo sapiens, UniProt P06748); assay: SPR steady state ([…] model, S0.[…] ≈ KD); DSF ΔTm […] °C at […] with C-terminal domain; Trp fluorescence unfolding; assay type: binding
T1 construct: gene NPM1; full-length NPM (SPR); C-terminal domain residues 243–294 (DSF)

Nucleophosmin (NPM) [2] = target: T1, Nucleophosmin (NPM); assay: SPR steady state ([…] model, S0.[…] ≈ KD); DSF ΔTm […] °C at […] with C-terminal domain; assay type: binding

T1 sequence (P06748 whole entry, the tested form may be a part): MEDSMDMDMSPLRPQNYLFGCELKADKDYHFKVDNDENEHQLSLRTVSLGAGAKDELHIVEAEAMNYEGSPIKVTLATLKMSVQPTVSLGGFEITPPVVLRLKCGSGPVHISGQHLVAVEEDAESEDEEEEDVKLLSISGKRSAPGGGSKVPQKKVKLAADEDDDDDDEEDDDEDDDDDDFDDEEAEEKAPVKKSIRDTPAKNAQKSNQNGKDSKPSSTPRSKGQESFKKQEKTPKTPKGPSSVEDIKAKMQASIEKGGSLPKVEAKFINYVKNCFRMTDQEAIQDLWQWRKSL

SMILES | Kd (Nucleophosmin (NPM) [1]) [µM] | Kd (Nucleophosmin (NPM) [2]) [µM]
CC1=C(C(=O)Nc2ccc(Br)cn2)C(c2ccccn2)C2=C(CC(c3ccccc3)CC2=O)N1 (centres unmarked) [C1] | 68 ± 13 | 
Cc1ccc(-n2c(SCC(=O)Nc3ccc4c(c3)OCCO4)nc3ccccc3c2=O)cc1 [C3] |  | 102 ± 23
